Test results from patent publication US20050112607A1, “Rapid and sensitive detection of protein aggregation” (priority 1999, published 2005).

What was measured:
[1] = Colloid/colloid linkage via biotin/streptavidin, color change; format: binding; conditions: streptavidin added to biotin-SAM colloids
Protocol: A set of gold colloids was derivatized with self-assembled monolayers that incorporated biotin-thiols (SAM forming species included C11, 3 ethylene glycol units, then biotin) along with C16 carboxy-terminated thiols (a mixed SAM). Streptavidin, which has four binding sites for biotin, or a random protein (GST) was added to the colloid solutions.

[2] = tested on: histidine-tagged RGD-motif-containing peptide; experiment: Colloid/colloid color change assay with RGD-peptide-bound NTA-Ni colloids; format: binding; conditions: 100 ul or 50 ul protein per well, room temperature, after approximately 15 minutes
Protocol: (§1) 600 microliters colloids, derivatized with a self-assembled monolayer that presents nitrilo tri-acetic acid, NTA (for the capture of histidine-tagged proteins), was mixed with 60 microliters of 500 micromolar histidine-tagged RGD-motif-containing peptide. 600 microliters of a second set of NTA-Ni presenting colloids was mixed with 60 ul of a 500 uM solution of GST, an irrelevant protein, as a negative control. Colloids were spun down and resuspended in phosphate buffer to remove residual unbound protein or peptide. Endostatin and Angiostatin, two proteins implicated in angiogenesis and suspected of binding to regions of vitronectin, such as the RGD peptide, were prepared by dialysis into phoshate-buffered saline solution and then 1:10 dilution into PBS from a stock concentration of 1 mg/mL.
(§2) 400 ul phosphate buffer (pH 7.4), 200 ul either RGD-bound colloids or GST-bound colloids, and either 100 ul endostatin or angiostatin, 50 ul endostatin or angiostatin/50 ul phosphate buffer, or 100 ul phosphate buffer (as a negative control) were added to each well of a crystallization dish. Color change was monitored over time at room temperature. […] The histidine-tagged proteins were then eluted using imidazole, and the samples were analyzed by SDS-PAGE. […]

[3] = tested on: resin-immobilized RGD peptide; experiment: NTA-Ni agarose resin binding, imidazole elution, SDS-PAGE (RGD peptide)
Protocol: (§3) 400 ul phosphate buffer (pH 7.4), 200 ul either RGD-bound colloids or GST-bound colloids, and either 100 ul endostatin or angiostatin, 50 ul endostatin or angiostatin/50 ul phosphate buffer, or 100 ul phosphate buffer (as a negative control) were added to each well of a crystallization dish. Color change was monitored over time at room temperature. […] The color change was more pronounced in the well that contained 100 ul endostatin than in the well that contained 50 ul endostatin/50 ul phospate buffer. […] Row A included colloids and angiostatin. Row B included colloids with endostatin. (Rows C and D are empty wells). Columns 1-3 have RGD peptide immobilized on the colloids. […] have an irrelevant protein, GST, immobilized on the colloid. Columns 1 and 4 contain […] of the relevant drug (endostatin or angiostatin). […] The results were verified by gel electrophoresis. The RGD peptide and histidine-tagged GST were bound to a small amount of NTA-Ni agarose resin at saturating concentration. Endostatin was incubated with the resin and allowed to bind to the protein on the resin. The histidine-tagged proteins were then eluted using imidazole, and the samples were analyzed by SDS-PAGE. […] This assay could be easily adapted for screening of drug candidates that either mimic the RGD-binding characteristic of endostatin or bind to the RGD-binding domains on endostatin. […]

[4] = biological target: resin-immobilized GST (Schistosoma japonicum, UniProt P08515); experiment: NTA-Ni agarose resin binding, imidazole elution, SDS-PAGE (GST)
Protocol: as §3

[5] = biological target: GST (Schistosoma japonicum, UniProt P08515); experiment: Colloid/colloid color change assay with GST-bound NTA-Ni colloids (irrelevant protein); format: binding; conditions: 100 ul or 50 ul protein per well, room temperature
Protocol: as §1, §2

Sequence of GST (P08515 whole entry): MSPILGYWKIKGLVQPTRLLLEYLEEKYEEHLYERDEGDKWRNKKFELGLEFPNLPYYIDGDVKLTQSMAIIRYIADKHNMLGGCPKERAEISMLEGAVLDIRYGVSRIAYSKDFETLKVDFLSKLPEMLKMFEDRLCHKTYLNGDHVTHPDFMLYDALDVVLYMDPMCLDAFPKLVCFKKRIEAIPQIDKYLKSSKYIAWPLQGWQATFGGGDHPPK
Sequence of resin-immobilized GST (P08515 whole entry): as above

Row | Substance | Color change of biotin-presenting colloid solution [1] | Color change from red to blue of RGD-peptide-bound colloids [2] | Binding to resin-immobilized RGD peptide (SDS-PAGE) [3] | Binding to resin-immobilized GST (SDS-PAGE) [4] | Color change of GST-bound colloids [5]
1 | Streptavidin | immediately turned blue |  |  |  | 
2 | endostatin |  | a color change from red to blue was visible | bound to the resin-immobilized RGD peptide | did not bind to the resin-immobilized GST | No color change occurred
3 | angiostatin |  | No color change occurred |  |  | No color change occurred
